# In patent publication US20130225694A1, “COMPOSITIONS AND METHODS OF INHIBITING RETINAL DEGENERATION” (Oklahoma Medical Research Foundation, priority 2012, published 2013):
# Assays:
# LRAT = target: T1, LRAT (Rattus norvegicus, UniProt Q9JI61); assay: Retinyl ester production by LRAT in rat RPE microsomes; type: biochemical; conditions: 1 mM PBN
# T1 construct: from tissue; host or cells: rat eyecup/RPE microsomes
# T1 sequence (Q9JI61 1-231): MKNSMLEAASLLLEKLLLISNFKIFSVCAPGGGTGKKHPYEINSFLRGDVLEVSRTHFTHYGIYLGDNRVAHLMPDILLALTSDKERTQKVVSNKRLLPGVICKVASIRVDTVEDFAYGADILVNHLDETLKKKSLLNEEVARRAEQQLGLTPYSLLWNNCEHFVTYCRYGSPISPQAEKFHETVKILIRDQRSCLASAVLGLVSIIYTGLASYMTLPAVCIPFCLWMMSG
# Experimental: Isomerohydrolase activity assay and PBN inhibition—Rats were sacrificed, and eyes were enucleated and dissected to remove the anterior part including lens, vitreous, and retina. The remaining eyecups containing RPE were sonicated 3 times for 20 seconds in a cold 0.32 M sucrose/0.1 M sodium phosphate buffer (pH 7.4). The homogenate was centrifuged (20 minutes, 20,000 g) to sediment sclera, unbroken cells, nuclei and mitochondria. The obtained supernatant was recentrifuged (1 hour, 100,000 g), and the microsomal pellet was resuspended in 10 mM 1,3-bis[tris(hydroxymethyl)-methylamino]propane (BTP), (pH 8.0) and 100 mM NaCl, and stored at −80° C. All-trans-[11,12-^3H]-retinol (1 mCi/ml, 45.5 Ci/mmol, American Radiolabeled Chemical, Inc., St. Louis, Mo.) in N,N-dimethyl formamide was used as the substrate for the isomerohydrolase assay. […] The upper layer was collected, and the generated retinoids were analyzed by normal phase HPLC as described (38). […] The isomerohydrolase activity was calculated from the area of the 11-cis-retinol peak using Radiomatic 610TR software (Perkin Elmer, Boston, Mass.) with synthetic 11-cis-[^3H]-retinol as a standard. […] The inhibition constant for PBN was calculated from the following equation: […] where [I]=concentration of PBN, Vm^i=maximal velocity in the presence of Vm=maximal velocity in the absence of PBN. […]
# rhodopsin = assay: Rhodopsin regeneration after topical eye drops in mice; type: in vivo, Balb/c mice; conditions: for rhodopsin recovered in 1 h in the dark: 10% PBN eye drops, DA control is 100%
# Experimental: Panel A: Application scheme and harvesting of the eye. 3 h group received 2 applications and 6 h group received 3 applications. Panel B: Rhodopsin content was measured as pmole/eye. In 1 h in the dark, untreated eyes (NT-LA 1 h DA, no treatment-light adapted followed by 1 hour dark adaptation) and vehicle-treated eyes recovered 75-80% rhodopsin [dark-adapted (DA) control is 100%], whereas 3 h PBN recovered only 43% and 6 h PBN only 29%. (***P<0.0001 compared to vehicle, n=8; ##p<0.005 between 3 h and 6 h group, n=8).
# An eye drop formulation was used with various absorption enhancers for topical application of PBN to mouse eyes. […] One hour dark adaptation followed by light causes 75-80% recovery of bleachable rhodopsin in the Balb/c mice (FIG. 18B, NT-LA 1 h DA). The eye drop without PBN (vehicle) had no effect on rhodopsin regeneration (FIG. 18B, vehicle).
# Eye drop formulations were prepared as described in Example 7 and contained 5% or 10% of a PBN derivative. The eye drop formulations were applied to Balb/c mice by the 6 h group application scheme shown in FIG. 18A, in which the eye drops were applied at 6, 3, and 0 h before dark adaptation. The eye drops were applied to completely light-adapted mouse eyes, and the mice were then moved to the dark for 1 h to allow the regeneration of bleachable rhodopsin. One hour dark adaptation followed by light causes […] recovery of bleachable rhodopsin in untreated mice (00, No Treatment). The eye drop without any nitrones (vehicle) had no effect on rhodopsin regeneration (000, vehicle).
# Rat Retina = conditions: 50 mg/kg 0.5 hour before light stress 2,700 lux for 24 hours; earlier publication (1); cited from earlier work
smiles,measurement,setting,value
"CC(C)(C)/[N+]([O-])=C/c1ccccc1 [Compound 1, α-phenyl-N-tert-butyl nitrone]",LRAT inhibition (production of retinyl ester),LRAT,not inhibited
same,rhodopsin recovered in 1 h in the dark,rhodopsin; 3 h group (2 applications),43%
same,rhodopsin recovered in 1 h in the dark,rhodopsin; 6 h group (3 applications),29%
same,% of Rhodopsin recovery,"rhodopsin; 10% in eye drop at 6, 3 and 0 h before dark adaptation, LA + 1 h DA, DA control = 100",48.67%
same,inhibition of rhodopsin regeneration as eye drop,"rhodopsin; eye drop formulation, summary of Table 7",inhibited rhodopsin regeneration significantly
same,regeneration of bleachable rhodopsin,"rhodopsin; one drop (~50 μl) containing 10% PBN, 1 h dark",significantly inhibited
same,protection of retinal structure and function,Rat Retina,80-90%
